# Read-outs that look alike come from different tables or passages of the source.
# Tests used:
# [1] = Repeated Administration Study 2: C-SEDDS 200 mg twice daily for 10 days, plasma Compound (2); type: in vivo, human
# Experimental: (§1) This clinical trial was a single-center, randomized, double-blind, placebo-controlled, single and multiple ascending dose study with the primary objective of evaluating the safety and tolerability of Compound (1) when orally administered to healthy adult males.
# (§2) Screening tests were conducted within 28 to 3 days before administration of the investigational drug to confirm the eligibility of the subjects, and the subjects were hospitalized 2 days before administration. After hospitalization, tests were conducted from 2 days before administration to the day of administration to confirm that there were no problems with eligibility, and then Compound (1) or placebo was randomly assigned. The subjects in each cohort consisted of 8 people, of which 6 were assigned to Compound (1) and 2 were assigned to placebo, and they were administered the drug.
# (§3) Day 8, when repeated administration was started, corresponds to administration day 1 (Day 1), and day 17 corresponds to administration day 10 (Day 10). […]
# (§4) The plasma concentration of Compound (2) was measured using a validated measurement method. Specifically, plasma was separated from collected blood and processed, and then the plasma concentration was measured by an LC/MS/MS apparatus.
# (§5) For twice-daily administration of C-SEDDS, blood was further collected at 13, 14, 14.5, and 16 hours later to quantify Compound (2).
# [2] = Repeated Administration Study 1: L-SEDDS 400 mg once daily for 10 days, plasma Compound (2); type: in vivo, human
# Experimental: as §1, §2, §3, §4, §5
# [3] = Phase 1 single-dose administration study: plasma concentration of Compound (2) by LC/MS/MS after oral Compound (1); type: in vivo, human; settings: Compound (1) 200 mg C-SEDDS single oral dose
# [4] = target: T1, MAdCAM-1 binding of lymphocytes (CD3-positive CD4-positive cells) (Homo sapiens, UniProt P13612+P26010); assay: Ex vivo integrin inhibitory activity: MAdCAM-1 binding inhibition rate of lymphocytes in plasma (flow cytometry); type: cell-based; settings: for IC90: CD4 positive
# T1 construct: endogenous in cells; host or cells: CD3-positive CD4-positive lymphocytes in heparinized whole blood of dosed healthy adult males
# T1 sequence (P13612 34-1032): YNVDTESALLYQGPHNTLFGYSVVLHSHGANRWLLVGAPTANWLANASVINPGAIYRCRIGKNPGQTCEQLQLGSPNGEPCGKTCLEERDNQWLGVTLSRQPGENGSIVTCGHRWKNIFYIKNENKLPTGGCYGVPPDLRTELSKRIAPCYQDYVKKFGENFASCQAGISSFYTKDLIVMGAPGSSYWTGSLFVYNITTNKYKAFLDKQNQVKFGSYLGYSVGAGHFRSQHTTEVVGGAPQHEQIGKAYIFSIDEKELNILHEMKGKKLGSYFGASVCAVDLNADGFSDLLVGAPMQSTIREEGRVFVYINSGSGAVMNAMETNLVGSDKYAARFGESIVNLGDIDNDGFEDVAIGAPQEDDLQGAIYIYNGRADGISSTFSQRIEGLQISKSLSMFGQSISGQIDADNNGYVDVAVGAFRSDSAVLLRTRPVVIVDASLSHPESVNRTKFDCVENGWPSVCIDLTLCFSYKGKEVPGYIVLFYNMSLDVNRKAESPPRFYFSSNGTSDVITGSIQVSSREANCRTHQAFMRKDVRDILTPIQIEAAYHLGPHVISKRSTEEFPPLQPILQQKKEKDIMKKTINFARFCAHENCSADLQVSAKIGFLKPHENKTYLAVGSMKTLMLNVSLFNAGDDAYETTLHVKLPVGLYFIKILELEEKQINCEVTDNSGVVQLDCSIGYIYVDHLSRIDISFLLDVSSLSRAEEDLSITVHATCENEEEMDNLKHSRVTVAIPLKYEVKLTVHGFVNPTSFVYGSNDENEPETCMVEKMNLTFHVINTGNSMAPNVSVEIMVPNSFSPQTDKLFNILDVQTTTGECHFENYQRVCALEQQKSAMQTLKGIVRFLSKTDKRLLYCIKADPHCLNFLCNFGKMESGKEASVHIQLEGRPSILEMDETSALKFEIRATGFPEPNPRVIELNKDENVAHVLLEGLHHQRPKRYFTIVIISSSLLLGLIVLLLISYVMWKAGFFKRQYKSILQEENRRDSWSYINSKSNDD
# T1 sequence (P26010 20-798): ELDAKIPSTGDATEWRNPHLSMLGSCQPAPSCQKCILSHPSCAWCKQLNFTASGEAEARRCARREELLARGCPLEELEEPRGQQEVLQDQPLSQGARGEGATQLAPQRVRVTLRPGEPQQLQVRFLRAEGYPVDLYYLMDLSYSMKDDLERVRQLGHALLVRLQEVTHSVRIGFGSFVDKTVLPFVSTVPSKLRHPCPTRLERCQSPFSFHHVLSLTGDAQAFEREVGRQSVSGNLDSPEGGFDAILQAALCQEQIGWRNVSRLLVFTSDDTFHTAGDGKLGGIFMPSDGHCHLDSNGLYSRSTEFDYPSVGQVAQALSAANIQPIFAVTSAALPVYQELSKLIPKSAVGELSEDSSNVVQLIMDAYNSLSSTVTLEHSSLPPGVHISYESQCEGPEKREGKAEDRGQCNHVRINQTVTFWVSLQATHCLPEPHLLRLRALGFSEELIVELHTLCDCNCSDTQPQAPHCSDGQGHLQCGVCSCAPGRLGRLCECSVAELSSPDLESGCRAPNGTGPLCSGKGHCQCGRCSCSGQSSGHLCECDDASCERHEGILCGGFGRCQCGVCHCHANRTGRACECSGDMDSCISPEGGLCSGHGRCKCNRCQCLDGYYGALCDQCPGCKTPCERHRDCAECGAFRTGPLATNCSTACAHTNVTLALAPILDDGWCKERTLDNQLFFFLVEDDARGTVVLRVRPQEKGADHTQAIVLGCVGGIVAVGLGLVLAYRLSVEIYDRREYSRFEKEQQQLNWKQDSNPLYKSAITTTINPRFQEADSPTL
# Experimental: [MAdCAM-1 Binding Inhibition Rate (PD) of Lymphocytes in Plasma and IC90, IC50]
# The MAdCAM-1 binding rate of lymphocytes in plasma was measured using a validated measurement method using the obtained blood samples, and the MAdCAM-1 binding inhibition rate of lymphocytes in plasma was calculated using Excel. Specifically, 5 μL of an 80 mM MnCl2 solution was added to 90 μL of heparinized blood and incubated at room temperature for 10 minutes. A volume of 5 μL of 200 μg/mL recombinant human MAdCAM-1/Fc (R&D Systems) was added to make a total volume of 100 μL, and the mixture was incubated at room temperature for 30 minutes. Subsequently, 1900 μL of BD Phosflow Lyse/Fix Buffer 5× (BD Biosciences) was added, and hemolysis and fixation were performed at 37° C. for 10 minutes. After centrifugation for 5 minutes, the supernatant was removed, and 2000 μL of RPMI-1640 medium supplemented with 10% inactivated fetal bovine serum (hereinafter referred to as medium) was added. After centrifugation for 5 minutes, the supernatant was removed and washed. After washing again with the medium, 50 μL of Brilliant Stain Buffer (BD Biosciences), 1.25 μL of MAdCAM-1 FITC (Hycult Biotech), 5 μL of CD4 PE (BD Biosciences), 2.5 μL of CD45RO APC (UCHL1) (BioLegend), 5 μL of CD3 BV421 (SK7) (BioLegend), and 2.5 μL of CD45 BV510 (HI30) (BioLegend) were added, and the mixture was incubated for 30 minutes. After washing with Stain Buffer (BSA) (BD Biosciences), the percentage of MAdCAM-1-positive cells among CD3-positive CD4-positive cells was measured using flow cytometry.
# The percentage of MAdCAM-1-positive cells among CD3-positive CD4-positive cells was calculated by subtracting each measured value from the measured value when MAdCAM-1/Fc was not added as a control. The percentage of MAdCAM-1-positive cells among CD3-positive CD4-positive cells before administration of Compound (1) or placebo was set as 0% inhibition, and the MAdCAM-1 binding inhibition rate at each blood collection time point was obtained. Furthermore, the concentration IC50 that causes 50% binding inhibition and the concentration IC90 that causes 90% binding inhibition were calculated.
# The MAdCAM-1 binding inhibition rate (PD) of lymphocytes in plasma was evaluated using collected blood, and the correlation with the plasma concentration (PK) of Compound (2) was plotted (FIG. 5).
# [5] = PK Simulation Analysis 2 by Superposition Method (200 mg twice daily); set-up: species or system human; settings: Day 10 of repeated administration
# Experimental: The plasma concentration of Compound (2) on day 10 of repeated administration at 200 mg twice daily (every 12 hours) was predicted using the superposition method implemented in the Nonparametric Superposition (NPS) tool of the analysis software Phoenix WinNonlin, applying the results of once-daily administration at 200 mg (Certara L.P.) (FIG. 6).
# [6] = PK Simulation Analysis 1 by Superposition Method (Phoenix WinNonlin NPS); set-up: species or system human; settings: Compound (1) 50 mg; 2.5 times the 20 mg prediction
# Excerpt: The plasma concentration profile of Compound (2) on day 10 of repeated administration was predicted using the superposition method implemented in the Nonparametric Superposition (NPS) tool of the analysis software Phoenix WinNonlin, applying the single-dose results (Certara L.P.) (FIG. 4).
smiles,measurement,setting,value
Cc1cc(=O)n(-c2ccc(C[C@H](NC(=O)c3cc(F)c(NS(=O)(=O)c4ccc(NC(=O)C(C)(C)C)cc4)cc3F)C(=O)O)cn2)c(=O)n1C [Compound (2)],increase of plasma concentration (trough value) 12 hours after the second dose on Day 10 of repeated vs single-dose administration,[1]; Compound (1) 200 mg C-SEDDS twice daily,about eightfold
same,trough concentration relative to IC90,[1]; twice-daily administration of C-SEDDS (Compound (1) 200 mg),maintained above IC90 (6.9 mg/mL) from the third day of administration
same,"increase of plasma concentration (trough value) after 24 hours, Day 10 of repeated vs single-dose administration",[2]; Compound (1) 400 mg L-SEDDS once daily,more than threefold
same,trough concentration relative to IC90,[2]; once-daily administration of L-SEDDS (Compound (1) 400 mg),maintained above IC90 (6.9 mg/mL) from the second day of administration
same,plasma concentration of Compound (2),[3]; 0.5 h post-dose,Below quantitation limit
same,plasma concentration of Compound (2),[3]; 1 h post-dose,Below quantitation limit
same,IC90,"[4]; ex vivo, blood of healthy adult males given Compound (1), read-out: IC90 (plasma concentration that causes 90% MAdCAM-1 binding inhibition)",6.9 ng/mL
same,IC90,[4]; read-out: IC90,6.9 ng/mL
same,IC50,"[4]; ex vivo, blood of healthy adult males given Compound (1), read-out: IC50 (plasma concentration that causes 50% MAdCAM-1 binding inhibition) (converted)",2.72 nM
same,correlation of plasma concentration (PK) with MAdCAM-1 binding inhibition rate (PD),"[4]; ex vivo, collected blood, FIG. 5",correlated
same,predicted trough value (200 mg twice daily) relative to measured trough value (400 mg once daily),[5],about twice
same,estimated Cmax on the 10th day of repeated administration,[6],3.63 ng/mL
